Results on 31 compounds are retold here after article PMC6792352, “Limited Chemical Structural Diversity Found to Modulate Thyroid Hormone Receptor in the Tox21 Chemical Library” (Environmental Health Perspectives, 2019).

Counter-ions that a name gives are not always drawn.

This data set in a line: in vitro. The conditions noted are these: rat, gh3-tre-luc cells.

Consider `CCN(CC)CCc1nc(-c2ccccc2)no1` [Oxalamine citrate], for which the CC50 at 24 h (AC50 (uM) modified / 1000) was more than 20 µM.

`C=CCOC(=O)CC(C)C` [Allyl isovalerate]: the cytotoxic concentration (CC50) at 24 h (AC50 (uM) modified / 1000) was more than 90 µM.

`O=C1OC(=O)c2cc(-c3ccc4c(c3)C(=O)OC4=O)ccc21` [5,5'-Bi-2-benzofuran-1,1',3,3'-tetrone] came in with a CC50 at 24 h (AC50 (uM) modified / 1000) of more than 90 µM.

On to `O=C(OCc1ccccc1)c1ccc(O)cc1` [Benzylparaben], for which, where the note is “AC50 (uM) modified / 1000”, the half-maximal cytotoxic concentration (CC50) at 24 h is more than 90 µM.

`C=CCSSCC=C` [Diallyl disulfide] gave a cytotoxic concentration (CC50) at 24 h (AC50 (uM) modified / 1000) of more than 90 µM.

For the compound `CN(C)CCCN(C)C` [N,N,N',N'-Tetramethyl-1,3-propanediamine], the 50% cytotoxic concentration (CC50) at 24 h (AC50 (uM) modified / 1000) is more than 5 µM.

Under “AC50 (uM) modified / 1000”, `C[C@@H]1C[C@H]2[C@@H]3C[C@H](F)C4=CC(=O)C=C[C@]4(C)[C@@]3(F)[C@@H](O)C[C@]2(C)[C@@]1(O)C(=O)COC(=O)C(C)(C)C` [Flumethasone pivalate] showed a half-maximal cytotoxic concentration (CC50) at 24 h of more than 50 µM.

The compound `CCC(=O)O[C@H]1[C@@H](N2CCCCC2)C[C@H]2[C@@H]3CC[C@H]4C[C@H](OC(C)=O)[C@@H](N5CCCCC5)C[C@]4(C)[C@H]3CC[C@@]21C` [(2beta,3alpha,5alpha,16beta,17beta)-3-Acetoxy-2,16-di(1-piperidinyl)androstan-17-yl propionate] showed a 50% cytotoxic concentration (CC50) at 24 h (AC50 (uM) modified / 1000) of more than 50 µM.

`O=CC=O` [Glyoxal] came in with a CC50 at 24 h (AC50 (uM) modified / 1000) of more than 90 µM.

For the compound `C=CC(=O)O` [Acrylic acid], the CC50 at 24 h (AC50 (uM) modified / 1000) is more than 50 µM.

Regarding `O=C(O)[C@@H](O)[C@H](O)[C@H](O)[C@@H](O)C(=O)O` [Mucic acid], the CC50 at 24 h (AC50 (uM) modified / 1000) was more than 50 µM.

Compound `C[C@@H]1CCC[C@H](C)N1NC(=O)c1ccc(Cl)c(S(N)(=O)=O)c1` [Clopamide] showed a CC50 at 24 h (AC50 (uM) modified / 1000) of more than 20 µM.

For the compound `CC(C)O` [Isopropanol], for the setting “AC50 (uM) modified / 1000”, the CC50 at 24 h was more than 100 µM.

For the setting “AC50 (uM) modified / 1000”, `C[Si](C)(C)O[Si](C)(C)C` [Hexamethyldisiloxane] had a cytotoxic concentration (CC50) at 24 h of more than 90 µM.

Regarding `O=C1O[C@H]([C@H](O)CO)C(O)=C1O` [Isoascorbic acid], for the setting “AC50 (uM) modified / 1000”, the CC50 at 24 h was more than 90 µM.

In turn, `CSc1ccc2c(c1)C(N1CCN(C)CC1)Cc1ccccc1S2` (stereo not shown) [Metitepine] yielded a CC50 at 24 h (AC50 (uM) modified / 1000) of 5.16 µM.

For `COC(=O)C1=C(C#N)NC(C)=C(C(=O)OC(C)C)C1c1cccc([N+](=O)[O-])c1` (stereo not shown) [Nilvadipine], where the note is “AC50 (uM) modified / 1000”, half-maximal cytotoxicity (CC50 at 24 h) was put at 27.9 µM.

For the setting “AC50 (uM) modified / 1000”, `O=C(/C=C/c1ccc([N+](=O)[O-])cc1)c1ccccc1` [4-Nitrochalcone] gave a CC50 at 24 h of more than 90 µM.

For `ClC(Cl)c1ccccc1` [Benzal chloride], the CC50 at 24 h (AC50 (uM) modified / 1000) is more than 90 µM.

In turn, `CCCCCCCCCCCCCCCCCC[N+](C)(C)C` [N,N,N-Trimethyloctadecan-1-aminium chloride] registered a cytotoxic concentration (CC50) at 24 h (AC50 (uM) modified / 1000) of 13.4 µM.

For `CC1C(=O)C[C@]2(C(C)C)C[C@H]12` (single isomer, unassigned; (-)) [(-)-alpha,beta-Thujone], the half-maximal cytotoxic concentration (CC50) at 24 h (AC50 (uM) modified / 1000, Tox21_110001=Tox21_301840, viability, 1 nM T3 present, 24 h) was more than 80 µM.

As for `CC(CC(c1ccccc1)c1ccccc1)NC(C)(C)C` (stereo not shown) [Terodiline hydrochloride], half-maximal cytotoxicity (AC50 (uM) modified / 1000) (CC50 at 24 h) was put at 11 µM.

`O=C1CCC(c2ccccc2)(C2CCN(Cc3ccccc3)CC2)C(=O)N1` (stereo not shown) [Benzetimide]: the CC50 at 24 h (AC50 (uM) modified / 1000) is more than 50 µM.

`CC(C)COCC(CN(Cc1ccccc1)c1ccccc1)N1CCCC1` (stereo not shown) [Bepridil] came in with a cytotoxic concentration (CC50) at 24 h (AC50 (uM) modified / 1000) of 9.16 µM.

The compound `COc1ccc(Br)c(C)c1` [1-Bromo-4-methoxy-2-methylbenzene] registered a CC50 at 24 h (AC50 (uM) modified / 1000) of more than 90 µM.

Where the note is “AC50 (uM) modified / 1000”, `COc1cc(C(=O)NS(=O)(=O)c2ccccc2C)ccc1Cc1cn(C)c2ccc(NC(=O)OC3CCCC3)cc12` [Zafirlukast] returned a CC50 at 24 h of 28.8 µM.

With `COc1cc(CNC(=O)CCCC/C=C/C(C)C)ccc1O` [Capsaicin], the CC50 at 24 h (AC50 (uM) modified / 1000) is more than 90 µM.

Take `C=C(C)C(=O)OCC1CCCO1` (stereo not shown) [Tetrahydrofurfuryl methacrylate]: the CC50 at 24 h (AC50 (uM) modified / 1000) was more than 90 µM.

With `CC1(C)[C@H](C(=O)OCc2coc(Cc3ccccc3)c2)[C@@H]1/C=C1\CCSC1=O` [Kadethrin], under “AC50 (uM) modified / 1000”, the CC50 at 24 h was more than 90 µM.

Turning to `CCCCCC[C@@H](O)C/C=C\CCCCCCCC(=O)O` [(9Z,12R)-12-Hydroxyoctadec-9-enoic acid], half-maximal cytotoxicity (AC50 (uM) modified / 1000) (CC50 at 24 h) was put at 80.8 µM.

Take `CCCCc1ccccc1` [Butylbenzene]: the cytotoxic concentration (CC50) at 24 h (AC50 (uM) modified / 1000) is more than 90 µM.
